Source: PubChem BioAssay (NCI)
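Tested at 5 concentrations; 48 h exposure; 96-well plates; endpoints linearly interpolated, else capped at highest concentration. GI50: concentration for 50% inhibition of growth. TGI: total growth inhibition.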

Tests used:
Test in all cases: inhibition of tumour cell growth, NCI panel, 48 h
786-0 renal = tested on: 786-0 renal
A498 renal = tested on: A498 renal
A549 NSCLC = tested on: A549 NSCLC
ACHN renal = tested on: ACHN renal
BT-549 breast = tested on: BT-549 breast
CAKI-1 renal = tested on: CAKI-1 renal
CCRF-CEM leukemia = tested on: CCRF-CEM leukemia
COLO 205 colon = tested on: COLO 205 colon
DU-145 prostate = tested on: DU-145 prostate
EKVX NSCLC = tested on: EKVX NSCLC
HCC-2998 colon = tested on: HCC-2998 colon
HCT-116 colon = tested on: HCT-116 colon
HCT-15 colon = tested on: HCT-15 colon
HL-60(TB) leukemia = tested on: HL-60(TB) leukemia
HOP-62 NSCLC = tested on: HOP-62 NSCLC
HOP-92 NSCLC = tested on: HOP-92 NSCLC
HS 578T breast = tested on: HS 578T breast
HT29 colon = tested on: HT29 colon
IGROV1 ovarian = tested on: IGROV1 ovarian
K-562 leukemia = tested on: K-562 leukemia
KM12 colon = tested on: KM12 colon
LOX IMVI melanoma = tested on: LOX IMVI melanoma
M14 melanoma = tested on: M14 melanoma
MALME-3M melanoma = tested on: MALME-3M melanoma
MCF7 breast = tested on: MCF7 breast
MDA-MB-231 breast = tested on: MDA-MB-231 breast
MDA-MB-435 = tested on: MDA-MB-435
MDA-MB-468 breast = tested on: MDA-MB-468 breast
MOLT-4 leukemia = tested on: MOLT-4 leukemia
NCI-H226 lung = tested on: NCI-H226 lung
NCI-H23 lung = tested on: NCI-H23 lung
NCI-H460 lung = tested on: NCI-H460 lung
NCI-H522 lung = tested on: NCI-H522 lung
NCI/ADR-RES ovarian = tested on: NCI/ADR-RES ovarian
OVCAR-3 ovarian = tested on: OVCAR-3 ovarian
OVCAR-4 ovarian = tested on: OVCAR-4 ovarian
OVCAR-5 ovarian = tested on: OVCAR-5 ovarian
OVCAR-8 ovarian = tested on: OVCAR-8 ovarian
PC-3 prostate = tested on: PC-3 prostate
RPMI-8226 leukemia = tested on: RPMI-8226 leukemia
RXF 393 renal = tested on: RXF 393 renal
SF-268 CNS = tested on: SF-268 CNS
SF-295 CNS = tested on: SF-295 CNS
SF-539 CNS = tested on: SF-539 CNS
SK-MEL-2 melanoma = tested on: SK-MEL-2 melanoma
SK-MEL-28 melanoma = tested on: SK-MEL-28 melanoma
SK-MEL-5 melanoma = tested on: SK-MEL-5 melanoma
SK-OV-3 ovarian = tested on: SK-OV-3 ovarian
SN12C renal = tested on: SN12C renal
SNB-19 CNS = tested on: SNB-19 CNS
SNB-75 CNS = tested on: SNB-75 CNS
SR leukemia = tested on: SR leukemia
SW-620 colon = tested on: SW-620 colon
T-47D breast = tested on: T-47D breast
TK-10 renal = tested on: TK-10 renal
U251 CNS = tested on: U251 CNS
UACC-257 melanoma = tested on: UACC-257 melanoma
UACC-62 melanoma = tested on: UACC-62 melanoma
UO-31 renal = tested on: UO-31 renal

Cc1ccc(CNC(=O)Cc2ccc3c(c2)CN(C2CCC(=O)NC2=O)C3=O)cc1 (centres undefined)
GI50 (786-0 renal): 20.2 nM | GI50 (A498 renal): 18.3 nM | TGI (A498 renal): 648 nM | GI50 (A549 NSCLC): 51.5 nM | TGI (A549 NSCLC): > 100000 nM | GI50 (ACHN renal): 445 nM | TGI (ACHN renal): > 100000 nM | GI50 (BT-549 breast): < 10 nM | TGI (BT-549 breast): < 12.8 nM | GI50 (CAKI-1 renal): 25.1 nM | TGI (CAKI-1 renal): > 100000 nM | GI50 (CCRF-CEM leukemia): < 10 nM | TGI (CCRF-CEM leukemia): > 100000 nM | GI50 (COLO 205 colon): < 10 nM | TGI (COLO 205 colon): 54.5 nM | GI50 (DU-145 prostate): 1090 nM | TGI (DU-145 prostate): > 100000 nM | GI50 (EKVX NSCLC): 384 nM | TGI (EKVX NSCLC): > 100000 nM | GI50 (HCC-2998 colon): < 10 nM | TGI (HCC-2998 colon): 258 nM | GI50 (HCT-116 colon): > 36500 nM | TGI (HCT-116 colon): > 100000 nM | GI50 (HCT-15 colon): 16 nM | TGI (HCT-15 colon): 888 nM | GI50 (HL-60(TB) leukemia): < 10 nM | TGI (HL-60(TB) leukemia): 2740 nM | GI50 (HOP-62 NSCLC): < 10 nM | TGI (HOP-62 NSCLC): 110 nM | GI50 (HOP-92 NSCLC): < 10 nM | TGI (HOP-92 NSCLC): < 19.6 nM | GI50 (HS 578T breast): < 10 nM | TGI (HS 578T breast): 267 nM | GI50 (HT29 colon): 50.1 nM | TGI (HT29 colon): > 100000 nM | GI50 (IGROV1 ovarian): < 10 nM | TGI (IGROV1 ovarian): 148 nM | GI50 (K-562 leukemia): 51.5 nM | TGI (K-562 leukemia): > 100000 nM | GI50 (KM12 colon): 31.1 nM | TGI (KM12 colon): > 100000 nM | GI50 (LOX IMVI melanoma): > 71600 nM | TGI (LOX IMVI melanoma): > 100000 nM | GI50 (M14 melanoma): < 13.1 nM | TGI (M14 melanoma): 1850 nM | GI50 (MALME-3M melanoma): < 10 nM | TGI (MALME-3M melanoma): < 12.6 nM | GI50 (MCF7 breast): 21.7 nM | TGI (MCF7 breast): > 100000 nM | GI50 (MDA-MB-231 breast): < 10 nM | GI50 (MDA-MB-435): 43.6 nM | TGI (MDA-MB-435): > 100000 nM | GI50 (MDA-MB-468 breast): < 10 nM | GI50 (MOLT-4 leukemia): < 10 nM | TGI (MOLT-4 leukemia): > 100000 nM | GI50 (NCI-H226 lung): < 10 nM | TGI (NCI-H226 lung): 1030 nM | GI50 (NCI-H23 lung): 5090 nM | TGI (NCI-H23 lung): > 100000 nM | GI50 (NCI-H460 lung): > 100000 nM | TGI (NCI-H460 lung): > 100000 nM | GI50 (NCI-H522 lung): 622 nM | TGI (NCI-H522 lung): > 100000 nM | GI50 (NCI/ADR-RES ovarian): 470 nM | TGI (NCI/ADR-RES ovarian): > 100000 nM | GI50 (OVCAR-3 ovarian): 160 nM | TGI (OVCAR-3 ovarian): > 100000 nM | GI50 (OVCAR-4 ovarian): 32.1 nM | GI50 (OVCAR-5 ovarian): 16.9 nM | TGI (OVCAR-5 ovarian): 1780 nM | GI50 (OVCAR-8 ovarian): < 10 nM | GI50 (PC-3 prostate): < 10 nM | GI50 (RPMI-8226 leukemia): 40.9 nM | TGI (RPMI-8226 leukemia): > 100000 nM | GI50 (RXF 393 renal): 24.8 nM | TGI (RXF 393 renal): 955 nM | GI50 (SF-268 CNS): 29.9 nM | TGI (SF-268 CNS): > 100000 nM | GI50 (SF-295 CNS): 46 nM | TGI (SF-295 CNS): > 100000 nM | GI50 (SF-539 CNS): 50.3 nM | TGI (SF-539 CNS): > 100000 nM | GI50 (SK-MEL-2 melanoma): 20.6 nM | TGI (SK-MEL-2 melanoma): 94.5 nM | GI50 (SK-MEL-28 melanoma): 70.1 nM | TGI (SK-MEL-28 melanoma): > 100000 nM | GI50 (SK-MEL-5 melanoma): 14.8 nM | TGI (SK-MEL-5 melanoma): 59.4 nM | GI50 (SK-OV-3 ovarian): 77 nM | GI50 (SN12C renal): 21.7 nM | GI50 (SNB-19 CNS): < 11.5 nM | GI50 (SNB-75 CNS): < 10 nM | TGI (SNB-75 CNS): 357 nM | GI50 (SR leukemia): 4540 nM | TGI (SR leukemia): > 100000 nM | GI50 (SW-620 colon): < 10 nM | TGI (SW-620 colon): > 100000 nM | GI50 (T-47D breast): < 10 nM | TGI (T-47D breast): 29.2 nM | GI50 (TK-10 renal): 95.3 nM | TGI (TK-10 renal): > 100000 nM | GI50 (U251 CNS): 375 nM | TGI (U251 CNS): > 100000 nM | GI50 (UACC-257 melanoma): > 100000 nM | TGI (UACC-257 melanoma): > 100000 nM | GI50 (UACC-62 melanoma): 309 nM | TGI (UACC-62 melanoma): > 100000 nM | GI50 (UO-31 renal): 19.1 nM | TGI (UO-31 renal): 469 nM
